“Also recorded” adds a separate entry of the source.
Key:
[1] = Pharmacokinetics and oral bioavailability in C3H mice, plasma levels by LC-MS; type: in vivo; conditions: for bioavailability: po, 10 mg/kg; for Plasma drug concentrations at higher PO dose: mice, PO 100 mg/kg in suspension, data not shown
HIV-1 Nef = HIV-1 Nef (Human immunodeficiency virus type 1 group M subtype B, UniProt P03406); test: SPR direct binding to immobilized recombinant Nef
HIV-1NL4-3 = test: Nef-dependent HIV-1 replication in U87MG/CD4/CXCR4 cells, p24 Gag ELISA; type: cell-based; conditions: 3 μM, 4 days
[2] = C3H, mouse, plasma, iv, 2 mg/kg

Row | Compound | half-life [1, 2] [h] | Reduction of binding affinity for Nef relative to B9 parent compound (HIV-1 Nef) [fold] | Effect on Nef-dependent enhancement of HIV-1 replication (HIV-1NL4-3) | AUC(0-inf) [1, 2] [ng·h/mL] | Cmax [1, 2] [ng/mL] | Vd [1, 2] [L/kg] | clearance [1, 2] [mL/min/kg] | bioavailability ([1]; C3H, mouse, plasma) [%] | Plasma drug concentrations at higher PO dose [1] | Nef binding by SPR (in words) (HIV-1 Nef) | AUC(0-t) [1, 2] [ng·h/mL]
1 | NC(=S)n1nc(-c2ccc([N+](=O)[O-])cc2)c(/N=N/c2cccc(Cl)c2)c1O [Compound 1] | > 2 |  |  |  |  |  |  |  |  |  | 
2 | NC(=S)n1nc(-c2ccc([N+](=O)[O-])cc2)c(CCc2cccc(Cl)c2)c1O [Compound 2] | 2.7 | 2 | suppressed Nef-dependent enhancement of HIV-1 replication to the same extent as B9 | 2470 | 11200 | 0.91 | 15.5 | 53 to 85 | proportionally higher plasma drug concentrations |  | 
3 | O=[N+]([O-])c1ccc(-c2n[nH]c(O)c2CCc2cccc(Cl)c2)cc1 [Compound 3] |  |  | no activity |  |  |  |  |  |  | dramatic loss of Nef binding; also recorded: fail to bind to Nef | 
4 | NC(=S)n1nc(-c2ccc([N+](=O)[O-])cc2)c(Cc2cccc(Cl)c2)c1O [Compound 4] |  |  | suppressed Nef-dependent enhancement of HIV-1 replication to the same extent as B9 | 3890 | 3880 | 0.95 | 11.2 | 57 to 100 | proportionally higher plasma drug concentrations |  | 3770
5 | O=[N+]([O-])c1ccc(-c2n[nH]c(O)c2Cc2cccc(Cl)c2)cc1 [Compound 5] |  |  | no activity |  |  |  |  |  |  | dramatic loss of Nef binding; also recorded: fail to bind to Nef | 

Source: PMC4756635 (Bioorganic & medicinal chemistry letters, 2016)
